Data from US7947676B2, “Pyrazolo[3,4-d]pyrimidine compounds as antitumor agents” (AstraZeneca AB, priority 2004, dated 2011).

How the values were obtained:
erbB2 tyrosine kinase = target: T1, erbB2 tyrosine kinase (Homo sapiens, UniProt P04626); assay: Protein tyrosine kinase phosphorylation assay, Test (a), erbB2; type: biochemical; details: recombinant intracellular fragment, ATP at Km concentration; read-out: IC50 (μM) Test (a): Inhibition of erbB2 tyrosine kinase protein phosphorylation
T1 construct: Recombinant intracellular fragments of EGFR, erbB2 and erbB4; made in house; host or cells: baculovirus/Sf21 insect cells (cleared lysate)
T1 sequence (P04626 676-1255 limits assumed): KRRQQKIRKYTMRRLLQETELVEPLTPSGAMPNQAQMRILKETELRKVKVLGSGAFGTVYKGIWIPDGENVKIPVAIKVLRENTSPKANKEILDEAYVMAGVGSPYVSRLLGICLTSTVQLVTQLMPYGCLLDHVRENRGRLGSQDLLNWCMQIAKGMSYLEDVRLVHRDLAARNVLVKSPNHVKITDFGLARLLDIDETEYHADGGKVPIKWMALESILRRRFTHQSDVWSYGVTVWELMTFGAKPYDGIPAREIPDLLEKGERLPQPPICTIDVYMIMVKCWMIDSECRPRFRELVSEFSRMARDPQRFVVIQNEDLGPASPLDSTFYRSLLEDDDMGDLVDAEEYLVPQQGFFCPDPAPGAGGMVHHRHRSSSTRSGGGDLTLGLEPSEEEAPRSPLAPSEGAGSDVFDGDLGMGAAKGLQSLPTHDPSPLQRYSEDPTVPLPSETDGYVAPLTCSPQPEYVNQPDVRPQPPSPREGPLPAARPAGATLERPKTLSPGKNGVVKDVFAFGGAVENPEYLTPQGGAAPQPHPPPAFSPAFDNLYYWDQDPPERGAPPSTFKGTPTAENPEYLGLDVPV
Method: (§1) This test measures the ability of a test compound to inhibit the phosphorylation of a tyrosine containing polypeptide substrate by EGFR, erbB2 and erbB4 tyrosine kinase enzyme.
(§2) Recombinant intracellular fragments of EGFR, erbB2 and erbB4 (accession numbers X00588, X03363 and L07868 respectively) were cloned and expressed in the baculovirus/Sf21 system. […]
(§3) Constitutive kinase activity of these recombinant proteins was determined by their ability to phosphorylate a synthetic peptide (made up of a random co-polymer of Glutamic Acid, Alanine and Tyrosine in the ratio of 6:3:1). […]
(§4) The immobilised phospho-peptide product of the reaction was detected by immunological methods. […] After further washing, HRP activity in each well of the plate was measured colorimetrically using 22′-Azino-di-[3-ethylbenzthiazoline sulfonate (6)] diammonium salt crystals (ABTS™ from Roche) as a substrate.
(§5) Kinase inhibition for a given compound was expressed as an IC50 value. […] The range of phosphorylation was calculated from the positive (vehicle plus ATP) and negative (vehicle minus ATP) control values.

EGFR tyrosine kinase = target: T2, EGFR tyrosine kinase (Homo sapiens, UniProt P00533); assay: Protein tyrosine kinase phosphorylation assay, Test (a), EGFR; type: biochemical; details: recombinant intracellular fragment, ATP at Km concentration; read-out: IC50 (μM) Test (a): Inhibition of EGFR tyrosine kinase protein phosphorylation
T2 construct: Recombinant intracellular fragments of EGFR, erbB2 and erbB4; made in house; host or cells: baculovirus/Sf21 insect cells (cleared lysate)
T2 sequence (P00533 669-1210 limits assumed): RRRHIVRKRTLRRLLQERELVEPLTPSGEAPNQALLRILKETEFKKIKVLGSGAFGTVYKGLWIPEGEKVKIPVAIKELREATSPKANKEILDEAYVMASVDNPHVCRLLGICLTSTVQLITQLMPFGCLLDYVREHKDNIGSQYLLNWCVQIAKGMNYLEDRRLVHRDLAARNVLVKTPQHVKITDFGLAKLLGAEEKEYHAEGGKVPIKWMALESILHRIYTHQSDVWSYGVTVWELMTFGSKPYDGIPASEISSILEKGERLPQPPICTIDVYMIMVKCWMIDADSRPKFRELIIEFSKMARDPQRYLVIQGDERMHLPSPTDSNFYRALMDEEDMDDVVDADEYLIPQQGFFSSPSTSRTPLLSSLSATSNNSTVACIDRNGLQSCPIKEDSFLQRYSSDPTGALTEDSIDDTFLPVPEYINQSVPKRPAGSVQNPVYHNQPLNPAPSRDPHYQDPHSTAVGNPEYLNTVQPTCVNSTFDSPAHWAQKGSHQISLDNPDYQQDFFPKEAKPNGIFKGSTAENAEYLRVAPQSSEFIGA
Method: as §1, §2, §3, §4, §5

erbB2 = target: T3, erbB2 (Homo sapiens, UniProt P04626); assay: Clone 24 phospho-erbB2 cell assay, Test (d); type: cell-based; details: MCF7 derived cell line (Clone 24) overexpressing erbB2, 4 hours; read-out: IC50 (μM) Test (d): Inhibition of phosphorylation of erbB2
T3 construct: to give a cell line that overexpresses full length wild type erbB2 protein; expressed in transfected cells; host or cells: MCF7 (breast carcinoma) derived 'Clone 24' cells
T3 sequence (P04626 23-1255): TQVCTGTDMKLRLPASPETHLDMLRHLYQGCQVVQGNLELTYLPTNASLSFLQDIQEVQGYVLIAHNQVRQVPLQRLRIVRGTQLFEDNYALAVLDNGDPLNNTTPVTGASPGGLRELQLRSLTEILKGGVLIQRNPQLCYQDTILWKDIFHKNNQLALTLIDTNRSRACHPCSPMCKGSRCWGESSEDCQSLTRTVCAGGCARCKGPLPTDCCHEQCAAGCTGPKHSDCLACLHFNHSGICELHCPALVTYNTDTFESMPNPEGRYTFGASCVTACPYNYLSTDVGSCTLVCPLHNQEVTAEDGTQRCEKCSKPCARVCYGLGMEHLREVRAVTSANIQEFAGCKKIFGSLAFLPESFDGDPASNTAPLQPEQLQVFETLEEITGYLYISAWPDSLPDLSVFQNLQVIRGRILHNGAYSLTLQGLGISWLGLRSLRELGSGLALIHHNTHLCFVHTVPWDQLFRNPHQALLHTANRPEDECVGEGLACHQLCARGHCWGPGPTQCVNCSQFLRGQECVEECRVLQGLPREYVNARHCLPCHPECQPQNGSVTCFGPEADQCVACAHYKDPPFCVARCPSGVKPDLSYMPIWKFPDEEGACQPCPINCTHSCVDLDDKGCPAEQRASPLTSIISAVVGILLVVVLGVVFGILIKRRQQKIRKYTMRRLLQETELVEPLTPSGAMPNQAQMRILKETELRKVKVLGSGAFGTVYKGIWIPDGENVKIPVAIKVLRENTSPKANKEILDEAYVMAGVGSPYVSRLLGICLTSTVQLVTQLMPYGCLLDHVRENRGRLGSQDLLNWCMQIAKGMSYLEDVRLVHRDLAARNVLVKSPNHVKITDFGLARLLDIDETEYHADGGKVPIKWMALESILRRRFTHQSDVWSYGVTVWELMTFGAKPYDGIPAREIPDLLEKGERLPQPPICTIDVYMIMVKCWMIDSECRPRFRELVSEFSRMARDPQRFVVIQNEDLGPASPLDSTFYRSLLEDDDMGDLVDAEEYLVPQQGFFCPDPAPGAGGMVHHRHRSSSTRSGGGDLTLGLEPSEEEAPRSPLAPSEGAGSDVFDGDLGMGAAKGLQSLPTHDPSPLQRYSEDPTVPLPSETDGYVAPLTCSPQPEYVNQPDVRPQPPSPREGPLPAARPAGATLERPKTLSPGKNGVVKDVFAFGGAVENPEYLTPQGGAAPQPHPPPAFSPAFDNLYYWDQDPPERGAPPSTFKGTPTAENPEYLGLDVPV
Method: The cells were resuspended in Growth Medium.
Plates were returned to the incubator for 4 hours and then 20 μl of 20% formaldehyde solution in PBS was added to each well and the plate was left at room temperature for 30 minutes. This fixative solution was removed with a multichannel pipette, 100 μl of PBS was added to each well and then removed with a multichannel pipette and then 50 μl PBS was added to each well. Plates were then sealed and stored for up to 2 weeks at 4° C.
Immunostaining was performed at room temperature. […] Then this primary antibody solution was removed from the wells using a plate washer followed by two 200 μl PBS/Tween 20 washes using a plate washer. […] From now onwards, wherever possible, plates were protected from light exposure, at this stage by sealing with black backing tape.
The Fluorescence signal is each well was measured using an Acumen Explorer Instrument (Acumen Bioscience Ltd.), a plate reader that can be used to rapidly quantitate features of images generated by laser-scanning. […] Fluorescence dose response data obtained with each compound was exported into a suitable software package (such as Origin) to perform curve fitting analysis. Inhibition of erbB2 phosphorylation was expressed as an IC50 value.

Cc1ccc(Oc2ccc(Nc3ncnc4[nH]nc(OCCN5CCOCC5)c34)cc2C)cn1 [Example 42, N-{3-methyl-4-[(6-methylpyridin-3-yl)oxy]phenyl}-3-(2-morpholin-4-ylethoxy)-1H-pyrazolo[3,4-d]pyrimidin-4-amine]
IC50 (erbB2 tyrosine kinase): 0.027 µM
IC50 (EGFR tyrosine kinase): 0.71 µM
IC50 (erbB2): 0.083 µM
